Measured values published in article PMC10788856, “Mimicking Nonribosomal Peptides from the Marine Actinomycete Streptomyces sp. H-KF8 Leads to Antimicrobial Peptides” (ACS Infectious Diseases, 2023).
Values after ≈ are worked out from the molar mass of the structure shown. Marks after values point to notes of the source that are not given here. Numbered stars: 1 amine (or outer) side, 2 acyl side, 3 side chain; on linkers, the order of the positions; unused ones are H or OH. Bridge positions count the residues as written; N and C are the ends. Square brackets hold non-standard residues; d marks the D form. Peptide text beside a SMILES is read from it. Tyr(3-NO2) = N[C@@H](Cc1ccc(O)c([N+](=O)[O-])c1)C(=O)O; Glutaryl = O=C(CCCC(=O)[*:2])[*:1]; Orn = NCCC[C@H](N)C(=O)O

Key:
[1] = tested on: S. aureus; assay: microbe, parasite or virus in culture; format: cell-based; conditions: for S. aureus MIC: 16 h
[2] = tested on: E. coli CCUG31246; format: cell-based; conditions: CCUG31246, 16 h
Experimental: MICs were performed under the same growth conditions used for mode of action analysis following the guidelines issued by the Clinical Laboratory Standardization Institute (CLSI) with slight modifications. Serial two-fold dilutions of the peptides were prepared in 1:10 BHI in a sterile 96-well plate and subsequently inoculated with 5 × 10^5 CFU/mL of E. coli CCUG31246. […] The following MICs were obtained: C3: 512 μg/mL, L3: 64 μg/mL, and L3-K: 128 μg/mL. These concentrations were used for all mechanistic experiments. Polymyxin B was used as a positive control in all assays at a final concentration of 10 μg/mL.

[3] = tested on: C. albicans; assay: microbe, parasite or virus in culture; format: cell-based; conditions: for C. albicans MIC: 16 h
[4] = tested on: Candida albicans (ATCC 64549/CCUG31028); assay: Minimum microbicidal concentration (MMC99) assay; format: cell-based, C. albicans; conditions: BHI diluted 1/100, 37 °C, median, n = 3
Experimental: (§1) The microbicidal activity of the synthetic peptides was assessed against S. aureus (ATCC 12600; American Type Culture Collection, Manassas, VA, USA), Escherichia coli (CCUG 31246; Culture Collection, University of Gothenburg, Sweden), and Candida albicans (ATCC 64549/CCUG31028) using an MMC assay, as described previously by […] et al. (specific details in Supporting Information, pages 10, 11).[28] The assay was performed in BHI diluted 1/100 (BHI100). […] page 11: Table S5. Energy and structural ensembles of synthesized peptides. […] Energy -3887.06 -3620.88 -4968.42 -2163.76 -2646.75 Van der Waals solv. Energy 117.32 91.57 183.20 -88.88 -139.89 Mean RMSD* (Å), mean±SD […] Heavy atoms 1.87 ± 0.33 1.77 ± 0.50 0.98 ± 0.34 0.63 ±0.22 2.88 ±0.62 MMC99 activity including salt stability measurements Antimicrobial activity of L2 and L3 in the presence of NaCl. 1Table S6. Peptide MMC99 (μg/ml) sin NaCl S. aureus E.coli C. albicans (mM) 2[…] 0 50 25 25 85 - - - - - - >200 >200 >200 150 - - - - - - >200 >200 >200 3L 0 12.5 12.5 25 12,5 6.3 6.3 12.5 6.3 12.5 […] 150 >400 >400 (-)2 >400 >400 >400 >200 >200 >200 […] or 150 mM NaCl. L2 and L3 were serially diluted in twofold steps with a starting dilution of 200 μg/ml […] All sample dilutions were run in duplicates (L2) or triplicates (L3). 2 The growth of S. aureus at 24 h in BHI 100 with 85 or 150 mM NaCl was reduced. Minimum microbicidal concentration (MMC), killing 99% of the inoculum. All microorganisms were cultured in brain-heart infusion broth (BHI) overnight on a shaker at 37°C. The cultures were thereafter transferred to fresh BHI broth in volumes constituting 10% of total, and incubated for an additional 2 h to reach exponential growth phase. The bacterial cultures were washed once in BHI diluted 1/100 (BHI100), followed by resuspension in BHI100. The cell suspensions were diluted to a density of […] (bacteria) or 2x10^7 CFU/ml (yeast), as estimated by optical density measurement at 590 nm. […] Serum stability Figure S 133. […] A) peptide L2 B) peptide L3. C) peptide L3-K. D) peptide C3.

[5] = tested on: S. aureus (ATCC 12600); assay: Minimum microbicidal concentration (MMC99) assay; format: cell-based; conditions: for S. aureus MMC99 6 h / S. aureus MMC99 24 h / S. aureus MMC99 2 h: BHI diluted 1/100, 37 °C, median, n = 3; for S. aureus MMC99 2 h: lowest concentration killing 99% of inoculum, two-fold dilutions 100-1.6 μg/mL
Experimental: as §1

[6] = tested on: Escherichia coli (CCUG 31246); assay: Minimum microbicidal concentration (MMC99) assay; format: cell-based, E. coli; conditions: BHI diluted 1/100, 37 °C, median, n = 3
Experimental: as §1

[7] = 37 °C, RP-HPLC
Experimental: Peptide stability in serum is another limiting factor for AMPs as novel antibiotics.[30]
Peptide serum stability was performed according to D́Aloisio et al.[30] and Chen et al.[51] with some minor modifications. The serum stability was investigated using human serum (Sigma-Aldrich) from Human male AB plasma, USA origin, sterile-filtered. 250 μL serum was temperature-equilibrated at 37 °C and 100 μL aqueous peptide solution (L2: 1 mM; L3: 0.9 mM; L3-K: 0.7 mM; and C3: 0.5 mM) was added. RP-HPLC was measured at time intervals of 0, 0.5, 1, 4, and 24 h. For RP-HPLC samples, 30 μL of peptide solution was taken, 7 μL of Fmoc-Gly solution (4 mM) was added, and 2 μL of the sample was injected to HPLC. […]
Figure S 133. RP-HPLC chromatogram (gradient from 10 to 90% acetonitrile in water over 10 min at 2
ml/min, detection at 254 nm) of peptides tested for serum stability. A) peptide L2 B) peptide L3. C)
(1 picture or pasted object on this page, not shown here)

[8] = tested on: hepatoblastoma (HepG2) cells; format: cell-based, human
Experimental: (§2) To confirm the peptide selectivity toward bacteria cells, cytotoxicity assays of synthesized peptides L2, L3, L3-K, and C3 against human embryonic kidney (HEK) and hepatoblastoma (HepG2) were performed (Figure 4). The cell viability was assessed using resazurin 24 h post peptide exposure. The line at 70% cell viability marks out the threshold for cytotoxic potential compared to the negative control.
(§3) Figure 4 Cell viability assessment using the resazurin assay 24 h post peptide exposure: (a) HepG2 and (b) HEK cells were treated with various concentrations of the peptides C3, L3, L3-K, and L2. Triton-X was used as a positive control. Cells cultured in pure cell media were used as negative controls and were considered to have 100% cell viability. The line represents the threshold for cytotoxicity level of 70% of cell viability compared to the negative control. Data are presented as the mean ± SD of three biological replicates of the HepG2 cells and the mean ± SD of two biological replicates of the HEK cells.
(§4) Cytotoxicity against human embryonic kidney (HEK) and hepatoblastoma (HepG2) cell lines was assessed. Cells were grown to an initial seeding density of 10 000 cells per well. Metabolic activity was determined in a resazurin-based assay. HEK and HepG2 cells were exposed to four different concentrations of the peptides for 24 h. Treatment with Triton X-100 at 1% v/v was used as a positive control. Following this exposure period, the cells were treated with resazurin at a final concentration of 0.015 mg/mL for 3 h. The metabolic activity was then determined in an resazurin-based assay. The fluorescence intensities were quantified in a Hidex Sense microplate reader using an excitation wavelength of 544 nm and an emission wavelength of 590 nm.

[9] = tested on: human embryonic kidney (HEK) cells; format: cell-based
Experimental: as §2, §3, §4

SMILES: CC(C)[C@@H](NC(=O)[C@@H](C)N)C(=O)N[C@H](C)C(=O)N[C@@H](Cc1c[nH]c2ccccc12)C(=O)N[C@H](CC(=O)O)C(=O)N[C@H](C(=O)N[C@H](CC(=O)O)C(=O)N[C@@H](C(=O)N[C@@H](CCCCN)C(N)=O)C(C)C)[C@@H](C)O [L1] (H-[dA][dV][dA]W[dD]T[dD][dV]K-NH2)
- S. aureus MIC [1]: >512 µg/mL
- E. coli MIC [2]: >512 µg/mL
- C. albicans MIC [3]: >512 µg/mL

SMILES: CC(C)[C@@H](NC(=O)[C@H](CCCN)NC(=O)[C@@H](NC(=O)[C@H](CCCN)NC(=O)[C@H](Cc1c[nH]c2ccccc12)NC(=O)[C@@H](C)NC(=O)[C@H](NC(=O)[C@@H](C)N)C(C)C)[C@@H](C)O)C(N)=O [L2-K] (H-[dA][dV][dA]W[Orn]T[Orn][dV]-NH2)
- S. aureus MIC [1]: >512 µg/mL
- E. coli MIC [2]: >512 µg/mL
- C. albicans MIC [3]: >512 µg/mL

SMILES: Clc1ccccc1C(c1ccccc1)(c1ccccc1)n1ccnc1 [clotrimazole, reference compound]
- C. albicans MMC99 2 h [4]: >100 ^d μg/mL
- C. albicans MMC99 6 h [4]: >100 ^d μg/mL
- C. albicans MMC99 24 h [4]: >100 ^d μg/mL
- MIC ([3]; Candida albicans, highest concentration 512 μg/mL, median, n = 3): 4 µg/mL (≈ 11.6 µM)

SMILES: CC(=O)O[C@H]1C[C@@]2(C)[C@@H](C[C@@H](O)[C@H]3[C@@]4(C)CC[C@@H](O)[C@@H](C)[C@@H]4CC[C@@]32C)/C1=C(\CCC=C(C)C)C(=O)O [fusidic acid, reference compound]
- MMC99 for S. aureus, decreasing over time ([5]; 2 h to 24 h): 25 to 1.6 μg/mL
- S. aureus MMC99 6 h [5]: 6.3 µg/mL
- S. aureus MMC99 24 h [5]: 1.6 µg/mL
- S. aureus MMC99 2 h [5]: 25 µg/mL
- MIC ([1]; Staphylococcus aureus, read-out: S. aureus MIC): 0.09 µg/mL (≈ 0.174 µM)

SMILES: CC(C)[C@H]1NC(=O)[C@H](CCCN)NC(=O)[C@H]([C@@H](C)O)NC(=O)[C@H](CCCN)NC(=O)[C@H](Cc2c[nH]c3ccccc23)NC(=O)[C@@H](C)NC(=O)[C@@H](C(C)C)NC(=O)[C@@H](C)NC(=O)CCCC(=O)NCCCC[C@@H](C(N)=O)NC1=O [C2] ([dA][dV][dA]W[Orn]T[Orn][dV]K-NH2; linker N-9 via Glutaryl)
- S. aureus MMC99 6 h [5]: >100 µg/mL
- S. aureus MMC99 24 h [5]: >100 µg/mL
- S. aureus MMC99 2 h [5]: >100 µg/mL
- E. coli MMC99 2 h [6]: >100 µg/mL
- E. coli MMC99 6 h [6]: >100 µg/mL
- E. coli MMC99 24 h [6]: >100 µg/mL
- C. albicans MMC99 2 h [4]: >100 µg/mL
- C. albicans MMC99 6 h [4]: >100 µg/mL
- C. albicans MMC99 24 h [4]: >100 µg/mL
- S. aureus MIC [1]: >512 µg/mL
- E. coli MIC [2]: >512 µg/mL
- C. albicans MIC [3]: >512 µg/mL

SMILES: CC(C)[C@@H](NC(=O)[C@H](CCCN)NC(=O)[C@@H](NC(=O)[C@H](CCCN)NC(=O)[C@H](Cc1c[nH]c2ccccc12)NC(=O)[C@@H](C)NC(=O)[C@H](NC(=O)[C@@H](C)NC(=O)[C@@H](N)Cc1c[nH]c2ccccc12)C(C)C)[C@@H](C)O)C(=O)N[C@@H](Cc1ccc(O)c([N+](=O)[O-])c1)C(=O)N[C@@H](CCCCN)C(N)=O [L3] (H-W[dA][dV][dA]W[Orn]T[Orn][dV][Tyr(3-NO2)]K-NH2)
- S. aureus MIC [1]: 248 µg/mL
- E. coli MIC [2]: 64 µg/mL
- stability in human serum ([7]; human serum from male AB plasma, 250 μL serum + 100 μL aqueous peptide solution (L2 1 mM; L3 0.9 mM; L3-K 0.7 mM; C3 0.5 mM), 0, 0.5, 1, 4, 24 h, Fmoc-Gly internal standard): stable after 24 h
- additional peaks / shoulder in chromatogram after 24 h in serum, total volume percentage ([7]; human serum, 24 h, detection at 254 nm): 0.6%
- cytotoxicity, cell viability HepG2 [8]: no cytotoxicity at any tested concentration
- cytotoxicity, cell viability HEK [9]: no cytotoxicity at any tested concentration

SMILES: CC(C)[C@H]1NC(=O)[C@@H](C)NC(=O)CCCC(=O)NCCCC[C@@H](C(N)=O)NC(=O)[C@@H](C(C)C)NC(=O)[C@@H](CC(=O)O)NC(=O)[C@H]([C@@H](C)O)NC(=O)[C@@H](CC(=O)O)NC(=O)[C@H](Cc2c[nH]c3ccccc23)NC(=O)[C@@H](C)NC1=O [C1] ([dA][dV][dA]W[dD]T[dD][dV]K-NH2; linker N-9 via Glutaryl)
- S. aureus MMC99 6 h [5]: >100 µg/mL
- S. aureus MMC99 24 h [5]: >100 µg/mL
- S. aureus MMC99 2 h [5]: >100 µg/mL
- E. coli MMC99 2 h [6]: >100 µg/mL
- E. coli MMC99 6 h [6]: >100 µg/mL
- E. coli MMC99 24 h [6]: >100 µg/mL
- C. albicans MMC99 2 h [4]: >100 µg/mL
- C. albicans MMC99 6 h [4]: >100 µg/mL
- C. albicans MMC99 24 h [4]: >100 µg/mL
- S. aureus MIC [1]: >512 µg/mL
- E. coli MIC [2]: >512 µg/mL
- C. albicans MIC [3]: >512 µg/mL
